# US20160193231A1, “RETT SYNDROME AND TREATMENTS THEREFORE” (RETT SYNDROME RESEARCH TRUST, priority 2013, published 2016)
# Counter-ions that a name gives are not always drawn. Like-named read-outs stand apart in the source and are kept apart here.
# What was measured:
# Mecp2^tm1.1Bird/Y mice = test: Peripheral fat measures of treated Mecp2 null males; assay type: in vivo, mouse; conditions: Example 6/FIG. 9; 25 mg/kg Sub-Q 2x per week
# Procedure: The preparation of the agents used in this Example was as follows: metformin hydrochloride, was dissolved in saline (Sigma). The day of injection, the metformin was diluted to 18 parts stock solution, 1 part DMSO, and 1 part ethanol, such that the desired dose for a 20 g mouse was given in 100 ul. […] The animals were treated starting at 5 weeks of age until the age of 10 weeks, or for a period of 5 weeks. Body weights were obtained weekly starting at 5 weeks of age prior to treatment, and ending at 10 weeks, at the end of study. Shown in the FIG. 9 are the weights after 3 weeks of treatment (at 8 weeks of age, panel A) and after 5 weeks of treatment (10 weeks of age, panel D).
# [1] = system: 129.Mecp2^tm1.1Bird/Y mice; test: Open field locomotor activity, Mecp2 null males; assay type: in vivo, mouse
# [2] = system: 129.Mecp2^tm1.1Bird/Y mice; test: Accelerating rotarod task, Mecp2 null males; assay type: in vivo, mouse
# [3] = in vivo; cited from earlier work
# MECP2 mutant mice = test: Trait amelioration / symptom rescue in Mecp2 mutant mice; assay type: in vivo, mouse; conditions: for rescue of motor traits and longevity: male mice, drugs sub-cutaneously
# [4] = cited from earlier work
# [5] = cited from earlier work; remark: listed apart in the source
# [6] = system: 129.Mecp2^tm1.1Bird/Y mice; test: Survival (longevity) of treated Mecp2 null male mice; assay type: in vivo, mouse; conditions: 129.Mecp2^tm1.1Bird/Y males, fluvastatin 3 mg/kg s.c.
# [7] = cited from earlier work; remark: listed apart in the source
# cytochrome p450 enzymes = conditions: cited from earlier work
# [8] = system: 129.Mecp2^tm1.1Bird/Y mice; test: Serum/plasma cholesterol, Mecp2 null males; assay type: in vivo, mouse; conditions: by P70; fluvastatin p=0.001, lovastatin p=0.001
# [9] = system: 129.Mecp2^tm1.1Bird/Y mice; test: Liver lipid measurement, Mecp2 null males; assay type: in vivo, mouse; conditions: P70; fluvastatin p=0.02; lovastatin p=0.386
# [10] = Example 6/FIG. 9, 25 mg/kg Sub-Q (3 mg/kg elsewhere in the source) 2x per week, vs vehicle
smiles,measurement,setting,value
O=S(=O)(c1ccccc1)N(CC(F)(F)F)c1ccc(C(O)(C(F)(F)F)C(F)(F)F)cc1 [T090317],peripheral fat measures,Mecp2^tm1.1Bird/Y mice,did not appear to improve
same,"motor performance, open field activity",[1]; [10],improved motor performance
same,"motor performance, rotarod",[2]; [10],improved motor performance
CCC(C)(C)C(=O)O[C@H]1C[C@@H](C)C=C2C=C[C@H](C)[C@H](CC[C@@H]3C[C@@H](O)CC(=O)O3)[C@H]21 [simvastatin],half-life,[3],2 to 3 h
CC(C)c1c(C(=O)Nc2ccccc2)c(-c2ccccc2)c(-c2ccc(F)cc2)n1CC[C@@H](O)C[C@@H](O)CC(=O)O [atorvastatin],rescue of motor traits and longevity,MECP2 mutant mice,varying degrees of rescue
Cl.F/C(COc1ccc2c(c1)[nH]c1ccccc12)=C1/CN2CCC1CC2 [(E)-2-[2-fluoro-2-(quinuclidin-3-ylidene)ethoxy]-9H-carbazole monohydrochloride],improvement of symptoms,"MECP2 mutant mice; Mecp2 mice, drugs targeting squalene synthase or squalene epoxidase",did not significantly improve symptoms
"CN(C)C(=N)N=C(N)N [metformin, metformin hydrochloride]",effect on Mecp2^tm1.1Bird/Y mice (FIG. 9 measures),"MECP2 mutant mice; Example 6, 30 mg/kg IP 2x per week, 5 to 10 weeks of age, vs vehicle",little effect
CC(C)n1c(/C=C/C(O)CC(O)CC(=O)O)c(-c2ccc(F)cc2)c2ccccc21 (stereo not shown) [fluvastatin],half-life,[3],approximately 96 hours
same,Lipophilicity (LogD):,[4],1.00-1.25
same,LD50 (oral):,"[5]; mouse, in vivo, po",>2000 mg/kg
same,survival beyond 120 days,[6],57%
same,median longevity,"[6]; compared to 87 days, p<0.0001",122 days
same,solubility in water,[7],soluble in water
same,Metabolized by:,cytochrome p450 enzymes,Cyp2C9
CC[C@H](C)C(=O)O[C@H]1C[C@@H](C)C=C2C=C[C@H](C)[C@H](CC[C@@H]3C[C@@H](O)CC(=O)O3)[C@H]21 [lovastatin],Lipophilicity (LogD):,[4],1.75-1.50
same,plasma cholesterol,[8],lowers
same,LD50 (oral):,[5]; (mouse),>1000 mg/kg
same,elevated lipid concentration in livers,[9],ameliorates
same,rescue of motor traits and longevity,MECP2 mutant mice,best rescue
same,Open field activity (beam breaks),"[1]; P70 treated null males vs vehicle, fluvastatin p=0.026, lovastatin p=0.011",increased
same,Metabolized by:,cytochrome p450 enzymes,Cyp3A4
same,Rotarod performance,"[2]; P56 treated null males vs vehicle, fluvastatin 3 mg/kg s.c. p=0.015, lovastatin […] s.c. p=0.009",improves
